Experimental data taken from ChEMBL document CHEMBL1158029, “Bisabolanes from the red alga Laurencia scoparia” (J Nat Prod, 2006).
Calls of active or inactive are those of the source. The rule behind the calls is not given here.

Test system: Nippostrongylus brasiliensis
Test: Antihelminthic activity against L4 parasitant stage of Nippostrongylus brasiliensis
Format: functional, organism-based

Q: `C=C(C)C(O)CCC(=C)[C@]1(O)CC[C@](C)(Br)[C@@H](Cl)C1` (relative stereo) was tested. Which Activity did it give?
A: inactive

Q: For `C=C(C[C@H](O)C=C(C)C)[C@@]1(O)CC[C@](C)(Br)[C@@H](Cl)C1`, which EC50 is on record?
A: 110 µM

Q: Which Activity does the source give for `C[C@@H]1CC[C@]23[C@H]1CC[C@@]2(C)C[C@@](C)(O)[C@H]3C` here?
A: inactive

Q: `C=C(C)C(O)CCC(=C)[C@@]1(O)CC[C@](C)(Br)[C@@H](Cl)C1` (relative stereo) was tested. Which Activity did it give?
A: inactive

Q: How did the Activity turn out when `C[C@@H]1CC[C@]23[C@H]1CC[C@@]2(C)C[C@H](C)[C@]3(C)O` was run?
A: inactive
